Where “and” joins values, the source holds several entries; their conditions need not be identical. Equal entries are not always repeated. Where two headings read alike, the source gives them in different places.
Assay: Short-term stability of vitamin D3 and vitamin D3 palmitate in liquid vitamin formulations at 40° C. (HPLC assay)
Format: physicochemical
Settings: 40° C.; for half-life: liquid vitamin formulation, first order fit of 16 weeks data, read-out: Time in Weeks for 50% Degradation (T50)
Experimental: In addition to the above, the vitamin formulation contains flavorants, stabilizer of vitamins, and about 1.0% polysorbate 80 as surfactant. As appreciated by the skilled artisan, appropriate overages of vitamins are included in order to assure meeting the label claims. The example composition contains 1.86:1 ratio by weight of glycerine to water. The pH is 5.0 which is adjusted by using an appropriate ratio of ascorbic acid to sodium ascorbate.
Vitamin D was analyzed by a HPLC assay as described by Matthew G. Sliva, et al., "Reversed-Phase Liquid Chromatographic Determination of Vitamin D in Infant Formulas and Enteral Nutritionals," J Assoc. Off. Anal. Chem., 75, 566, 1992, except that saponification conditions of 70° C. for 40 minutes were employed.
Stability of vitamins D3 and D3 palmitate were compared in various vitamin formulations containing different amounts of water and glycerin and at different pHs. The other ingredients and method of pH adjustment were as described in Example 1. The results are in Tables 2-5. Each batch number represents a different liquid vitamin formulation. The amount of glycerin varied between 650 and 850 mg/ml, depending upon the amount of water. "Vit" represents vitamin, "Desc." represents description,"Vit D3" represents vitamin D3, and "Vit D3P" or "D3 P" represents vitamin D3 palmitate. Table 1 lists the half-life (T50) values, i.e., time to degrade to 50% of the starting concentration of vitamins D3 and D3 palmitate at 40° C., These T50 values were calculated by fitting the data to first order degradation rate.

SMILES: C=C1CC[C@H](O)C/C1=C/C=C1\CCC[C@]2(C)[C@@H]([C@H](C)CCCC(C)C)CC[C@@H]12 [Vitamin D3, vitamin D3]
- half-life (pH 3.2, pH 3.2, 252 mg/ml water): 220 days
- half-life (pH 3.2, pH 3.2, 390 mg/ml water): 73.5 days
- half-life (pH 4.2, pH 4.2, 252 mg/ml water): 105 days
- half-life (pH 4.2, pH 4.2, 390 mg/ml water): 44.8 days
- half-life (pH 5, pH 5.0, 252 mg/ml water): 117 days
- half-life (pH 5, pH 5.0, 320 mg/ml water): 86.8 days
- half-life (pH 5, pH 5.0, 390 mg/ml water): 40.6 days
- half-life (pH 5, pH 5.0, 435 mg/ml water): 39.9 days
- half-life (pH 5.6, pH 5.6, 252 mg/ml water): 146 days
- half-life (pH 5.6, pH 5.6, 390 mg/ml water): 44.1 days
- Vitamin D content on storage (pH 3.2, 252 mg/ml water, age 0 weeks, Batch #1 (D3), #2 (D3 P)): 787 IU/ml and 789 IU/ml
- Vitamin D content on storage (pH 3.2, 252 mg/ml water, age 1 week, Batch #1 (D3), #2 (D3 P)): 714 IU/ml and 724 IU/ml
- Vitamin D content on storage (pH 3.2, 252 mg/ml water, age 2 weeks, Batch #1 (D3), #2 (D3 P)): 718 IU/ml and 691 IU/ml
- Vitamin D content on storage (pH 3.2, 252 mg/ml water, age 4 weeks, Batch #1 (D3), #2 (D3 P)): 720 IU/ml and 713 IU/ml
- Vitamin D content on storage (pH 3.2, 252 mg/ml water, age 6 weeks, Batch #1 (D3), #2 (D3 P)): 656 IU/ml and 628 IU/ml
- Vitamin D content on storage (pH 3.2, 252 mg/ml water, age 8 weeks, Batch #1 (D3), #2 (D3 P)): 658 IU/ml and 634 IU/ml
- Vitamin D content on storage (pH 3.2, 252 mg/ml water, age 12 weeks, Batch #1 (D3), #2 (D3 P)): 514 IU/ml and 586 IU/ml
- Vitamin D content on storage (pH 3.2, 252 mg/ml water, age 16 weeks, Batch #1 (D3), #2 (D3 P)): 559 IU/ml and 542 IU/ml
- Vitamin D content on storage (pH 3.2, 390 mg/ml water, age 0 weeks, Batch #3 (D3), #4 (D3 P)): 445 IU/ml and 447 IU/ml
- Vitamin D content on storage (pH 3.2, 390 mg/ml water, age 1 week, Batch #3 (D3), #4 (D3 P)): 429 IU/ml
- Vitamin D content on storage (pH 3.2, 390 mg/ml water, age 2 weeks, Batch #3 (D3), #4 (D3 P)): 392 IU/ml and 399 IU/ml
- Vitamin D content on storage (pH 3.2, 390 mg/ml water, age 4 weeks, Batch #3 (D3), #4 (D3 P)): 359 IU/ml and 369 IU/ml
- Vitamin D content on storage (pH 3.2, 390 mg/ml water, age 8 weeks, Batch #3 (D3), #4 (D3 P)): 282 IU/ml and 271 IU/ml
- Vitamin D content on storage (pH 3.2, 390 mg/ml water, age 12 weeks, Batch #3 (D3), #4 (D3 P)): 207 IU/ml and 211 IU/ml
- Vitamin D content on storage (pH 3.2, 390 mg/ml water, age 16 weeks, Batch #3 (D3), #4 (D3 P)): 160 IU/ml and 149 IU/ml
- Vitamin D content on storage (pH 4.2, 252 mg/ml water, age 0 weeks, Batch #5 (D3), #6 (D3 P)): 450 IU/ml
- Vitamin D content on storage (pH 4.2, 252 mg/ml water, age 1 week, Batch #5 (D3), #6 (D3 P)): 440 IU/ml and 445 IU/ml
- Vitamin D content on storage (pH 4.2, 252 mg/ml water, age 2 weeks, Batch #5 (D3), #6 (D3 P)): 422 IU/ml and 425 IU/ml
- Vitamin D content on storage (pH 4.2, 252 mg/ml water, age 4 weeks, Batch #5 (D3), #6 (D3 P)): 364 IU/ml and 371 IU/ml
- Vitamin D content on storage (pH 4.2, 252 mg/ml water, age 8 weeks, Batch #5 (D3), #6 (D3 P)): 331 IU/ml and 315 IU/ml
- Vitamin D content on storage (pH 4.2, 252 mg/ml water, age 12 weeks, Batch #5 (D3), #6 (D3 P)): 255 IU/ml and 267 IU/ml
- Vitamin D content on storage (pH 4.2, 252 mg/ml water, age 16 weeks, Batch #5 (D3), #6 (D3 P)): 198 IU/ml and 224 IU/ml
- Vitamin D content on storage (pH 4.2, 390 mg/ml water, age 0 weeks, Batch #7 (D3), #8 (D3 P)): 451 IU/ml and 448 IU/ml
- Vitamin D content on storage (pH 4.2, 390 mg/ml water, age 1 week, Batch #7 (D3), #8 (D3 P)): 420 IU/ml and 418 IU/ml
- Vitamin D content on storage (pH 4.2, 390 mg/ml water, age 2 weeks, Batch #7 (D3), #8 (D3 P)): 357 IU/ml and 360 IU/ml
- Vitamin D content on storage (pH 4.2, 390 mg/ml water, age 4 weeks, Batch #7 (D3), #8 (D3 P)): 301 IU/ml and 299 IU/ml
- Vitamin D content on storage (pH 4.2, 390 mg/ml water, age 8 weeks, Batch #7 (D3), #8 (D3 P)): 181 IU/ml and 178 IU/ml
- Vitamin D content on storage (pH 4.2, 390 mg/ml water, age 12 weeks, Batch #7 (D3), #8 (D3 P)): 109 IU/ml and 124 IU/ml
- Vitamin D content on storage (pH 4.2, 390 mg/ml water, age 16 weeks, Batch #7 (D3), #8 (D3 P)): 91.7 IU/ml and 76.1 IU/ml
- Vitamin D content on storage (pH 5.0, 252 mg/ml water, age 0 weeks, Batch #9 (D3), #10 (D3 P)): 840 IU/ml and 851 IU/ml
- Vitamin D content on storage (pH 5.0, 252 mg/ml water, age 1 week, Batch #9 (D3), #10 (D3 P)): 791 IU/ml and 793 IU/ml
- Vitamin D content on storage (pH 5.0, 252 mg/ml water, age 4 weeks, Batch #9 (D3), #10 (D3 P)): 720 IU/ml and 700 IU/ml
- Vitamin D content on storage (pH 5.0, 252 mg/ml water, age 8 weeks, Batch #9 (D3), #10 (D3 P)): 583 IU/ml and 590 IU/ml
- Vitamin D content on storage (pH 5.0, 252 mg/ml water, age 12 weeks, Batch #9 (D3), #10 (D3 P)): 478 IU/ml and 482 IU/ml
- Vitamin D content on storage (pH 5.0, 252 mg/ml water, age 16 weeks, Batch #9 (D3), #10 (D3 P)): 460 IU/ml and 430 IU/ml
- Vitamin D content on storage (pH 5.0, 390 mg/ml water (so in the source), age 0 weeks, Batch #11 (D3), #12 (D3 P)): 454 IU/ml and 449 IU/ml
- Vitamin D content on storage (pH 5.0, 390 mg/ml water (so in the source), age 1 week, Batch #11 (D3), #12 (D3 P)): 432 IU/ml and 423 IU/ml
- Vitamin D content on storage (pH 5.0, 390 mg/ml water (so in the source), age 2 weeks, Batch #11 (D3), #12 (D3 P)): 424 IU/ml and 426 IU/ml
- Vitamin D content on storage (pH 5.0, 390 mg/ml water (so in the source), age 4 weeks, Batch #11 (D3), #12 (D3 P)): 377 IU/ml and 371 IU/ml
- Vitamin D content on storage (pH 5.0, 390 mg/ml water (so in the source), age 8 weeks, Batch #11 (D3), #12 (D3 P)): 291 IU/ml and 281 IU/ml
- Vitamin D content on storage (pH 5.0, 390 mg/ml water (so in the source), age 12 weeks, Batch #11 (D3), #12 (D3 P)): 230 IU/ml and 237 IU/ml
- Vitamin D content on storage (pH 5.0, 390 mg/ml water (so in the source), age 16 weeks, Batch #11 (D3), #12 (D3 P)): 196 IU/ml and 182 IU/ml
- Vitamin D content on storage (pH 5.0, 390 mg/ml water, age 0 weeks, Batch #13 (D3), #14 (D3 P)): 453 IU/ml and 452 IU/ml
- Vitamin D content on storage (pH 5.0, 390 mg/ml water, age 1 week, Batch #13 (D3), #14 (D3 P)): 413 IU/ml and 410 IU/ml
- Vitamin D content on storage (pH 5.0, 390 mg/ml water, age 2 weeks, Batch #13 (D3), #14 (D3 P)): 363 IU/ml and 356 IU/ml
- Vitamin D content on storage (pH 5.0, 390 mg/ml water, age 4 weeks, Batch #13 (D3), #14 (D3 P)): 298 IU/ml and 305 IU/ml
- Vitamin D content on storage (pH 5.0, 390 mg/ml water, age 8 weeks, Batch #13 (D3), #14 (D3 P)): 166 IU/ml and 168 IU/ml
- Vitamin D content on storage (pH 5.0, 435 mg/ml water, age 0 weeks, Batch #15 (D3), #16 (D3 P)): 450 IU/ml and 453 IU/ml
- Vitamin D content on storage (pH 5.0, 435 mg/ml water, age 1 week, Batch #15 (D3), #16 (D3 P)): 400 IU/ml and 426 IU/ml
- Vitamin D content on storage (pH 5.0, 435 mg/ml water, age 2 weeks, Batch #15 (D3), #16 (D3 P)): 370 IU/ml
- Vitamin D content on storage (pH 5.0, 435 mg/ml water, age 4 weeks, Batch #15 (D3), #16 (D3 P)): 285 IU/ml and 291 IU/ml
- Vitamin D content on storage (pH 5.0, 435 mg/ml water, age 8 weeks, Batch #15 (D3), #16 (D3 P)): 187 IU/ml

Reference: patent publication US5478816A, “Liquid vitamin formulations containing vitamin D esters” (Bristol-Myers Squibb Company, priority 1993, dated 1995)
